ChEMBL document CHEMBL3632474, “Synthesis, biological evaluation and structure-activity relationship studies of isoflavene based Mannich bases with potent anti-cancer activity” (Bioorg Med Chem Lett, 2015)

Tests used:
[1] = Antiproliferative effects against human SHEP cells after 72 hrs by Alamar blue assay
MRC5 = test: Antiproliferative effects against human MRC5 cells after 72 hrs by Alamar blue assay; details: MRC5, 72 h

SMILES	IC50 [1] [µM]	IC50 (MRC5) [µM]
CCCCNCc1cc2c(cc1O)OC=C(c1ccc(O)cc1)C2	4	33.8
Oc1ccc(C2=Cc3cc4c(cc3OC2)OCN(CCc2ccccc2)C4)cc1	0.7	197
C=CCN1COc2cc3c(cc2C1)C=C(c1ccc(O)cc1)CO3	9.1	–
CN1COc2cc3c(cc2C1)C=C(c1ccc(O)cc1)CO3	6.6	–
Oc1ccc(C2=Cc3cc(CN4CCCCC4)c(O)cc3OC2)cc1CN1CCCCC1	4.2	–
CCN(CC)Cc1cc2c(cc1O)OCC(c1ccc(O)cc1)=C2	35.7	–
CCCCN1COc2cc3c(cc2C1)C=C(c1ccc(O)cc1)CO3	3.9	33.8
CCN(CC)Cc1cc(C2=Cc3cc(CN(CC)CC)c(O)cc3OC2)ccc1O	3.4	21.2
C1=C(c2ccc3c(c2)CN(Cc2ccccc2)CO3)COc2cc3c(cc21)CN(Cc1ccccc1)CO3	3.7	–
CCCCOCCCNCc1cc2c(cc1O)OC=C(c1ccc(O)cc1)C2	5.1	–
CN(C)Cc1cc2c(cc1O)OC=C(c1ccc(O)cc1)C2	5.8	–
Oc1ccc(C2=COc3cc(O)ccc3C2)cc1 [ISOPHENOXODIOL]	8.4	109
Oc1ccc(C2=Cc3cc(CN4CCOCC4)c(O)c(CN4CCOCC4)c3OC2)cc1CN1CCOCC1	69	–
CCCCCCCN1COc2cc3c(cc2C1)C=C(c1ccc(O)cc1)CO3	1.4	11.9
Oc1ccc(C2=Cc3cc(CN4CCOCC4)c(O)cc3OC2)cc1	86.8	–
CCCCCCCNCc1cc2c(cc1O)OC=C(c1ccc(O)cc1)C2	2.8	16
OCCN1COc2cc3c(cc2C1)C=C(c1ccc(O)cc1)CO3	24.6	–
CC(C)N1COc2cc3c(cc2C1)C=C(c1ccc(O)cc1)CO3	12.2	–
Oc1ccc(C2=COc3cc(O)c(CNCc4ccccc4)cc3C2)cc1	5.7	40.9
CC(C)NCc1cc2c(cc1O)OC=C(c1ccc(O)cc1)C2	15.1	–
Oc1ccc(C2=Cc3cc4c(cc3OC2)OCN(Cc2ccccc2)C4)cc1	5.7	–
Oc1ccc(C2=Cc3cc(CN4CCOCC4)c(O)cc3OC2)cc1CN1CCOCC1	171	–
Oc1ccc(C2=COc3cc(O)c(CNCCc4ccccc4)cc3C2)cc1	1.8	36.7
Oc1ccc(C2=Cc3cc(CN4CCCCC4)c(O)cc3OC2)cc1	19.9	–
OCCNCc1cc2c(cc1O)OC=C(c1ccc(O)cc1)C2	27.5	–
